In patent US20240158393A1, “PYRIDONE COMPOUNDS AND METHODS OF USE” (Exelixis, Inc., priority 2021, published 2024):
Structures can show the parent of a compound that is named as a salt.

Experiments:
Human Mer = target: T1, Human Mer (Homo sapiens, UniProt Q12866); assay: Human Mer kinase assay (33P radiometric / HTRF KinEase); assay type: biochemical; conditions: protocols of Examples C-1 and/or C-2
T1 construct: Human Mer (residues R557-E882 with H628Q and R794A, 0.7 nM); purchased Eurofins Pharma Discovery Services UK Limited (KinaseProfiler service)
T1 sequence (Q12866 557-882 limits assumed): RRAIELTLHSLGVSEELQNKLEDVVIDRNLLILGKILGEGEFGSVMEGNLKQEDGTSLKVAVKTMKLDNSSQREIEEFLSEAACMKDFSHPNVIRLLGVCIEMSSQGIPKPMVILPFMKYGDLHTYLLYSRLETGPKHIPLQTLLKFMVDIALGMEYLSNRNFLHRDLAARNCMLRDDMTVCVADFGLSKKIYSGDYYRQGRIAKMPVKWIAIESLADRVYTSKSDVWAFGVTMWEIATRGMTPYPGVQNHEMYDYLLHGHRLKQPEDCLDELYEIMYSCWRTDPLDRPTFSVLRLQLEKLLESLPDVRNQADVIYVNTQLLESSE
Outline: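 Two formats yield IC50 values. HTRF KinEase used MER residues 528-999 with ATP at Km (40 μM), 1 μM biotin-peptide, 60 min RT, […], 10 concentrations. 33P filter assay used 0.7 nM Mer R557-E882 (H628Q/R794A), 10 μM ATP, 250 μM peptide, 40 min RT, top 1 μM.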

Human Met = target: T2, Human Met (Homo sapiens, UniProt P08581); assay: Human Met kinase assay (33P radiometric / HTRF KinEase); assay type: biochemical; conditions: protocols of Examples D-1 and/or D-2; read-out: c-Met IC50
T2 construct: Human MET (residues 956-1390)
Outline: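 Two formats gave IC50s by curve fitting. HTRF KinEase used MET residues 956-1390 with 1 μM biotin-peptide and 3.0 μM ATP (Km) for 40 min at room temperature, ten doses in 3% DMSO, 665/620 nm read. The 33P transfer assay used mutant Met R974-S1390 A1209G/V1290L (3.4 nM), 10 μM ATP, 250 μM peptide, pH 7.0, 40 min, nine doses from 1 μM.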

T2 sequence (P08581 974-1390 limits assumed): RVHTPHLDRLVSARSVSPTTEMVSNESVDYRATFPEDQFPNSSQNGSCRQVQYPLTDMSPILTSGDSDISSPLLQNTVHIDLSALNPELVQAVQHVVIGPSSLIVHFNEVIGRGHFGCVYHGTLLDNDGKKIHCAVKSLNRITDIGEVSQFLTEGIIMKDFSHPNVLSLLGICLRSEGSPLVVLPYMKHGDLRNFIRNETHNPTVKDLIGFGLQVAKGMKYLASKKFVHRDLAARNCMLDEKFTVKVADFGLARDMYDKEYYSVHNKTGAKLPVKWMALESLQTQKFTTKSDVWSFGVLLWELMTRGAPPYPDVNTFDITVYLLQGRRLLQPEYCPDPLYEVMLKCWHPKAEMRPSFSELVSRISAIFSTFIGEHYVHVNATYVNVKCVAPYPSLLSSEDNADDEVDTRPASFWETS

Compound | IC50 (Human Mer) | IC50 (Human Met)
C=C(C)c1c(C)n(C)c(C)c(C(=O)Nc2ccc(Oc3ccnc4cc(OC)c(OC)nc34)c(F)c2)c1=O [Compound 52, N-[4-[(6,7-Dimethoxy-1,5-naphthyridin-4-yl)oxy]-3-fluorophenyl]-1,2,6-trimethyl-4-oxo-5-prop-1-en-2-ylpyridine-3-carboxamide] | ≤ 100 nM | > 300 nM
COc1cc2nccc(Oc3ccc(NC(=O)c4c(C)n(C)c(C)c(C5=CCOCC5)c4=O)cc3F)c2nc1OC [Compound 53, 5-(3,6-Dihydro-2H-pyran-4-yl)-N-[4-[(6,7-dimethoxy-1,5-naphthyridin-4-yl)oxy]-3-fluorophenyl]-1,2,6-trimethyl-4-oxopyridine-3-carboxamide] | ≤ 100 nM | ≤ 100 nM
COCCOc1cc2nccc(Oc3ccc(NC(=O)c4c(C)n(C)c(C)c(/C=C/C5CCCC5)c4=O)cc3F)c2nc1OC [Compound 54, 5-[(E)-2-Cyclopentylethenyl]-N-[3-fluoro-4-[[6-methoxy-7-(2-methoxyethoxy)-1,5-naphthyridin-4-yl]oxy]phenyl]-1,2,6-trimethyl-4-oxopyridine-3-carboxamide] | ≤ 100 nM | 100 to 300 nM
C=C(C)c1c(C)n(C)c(C)c(C(=O)Nc2ccc(Oc3ccnc4cc(OC)c(OC)nc34)cc2)c1=O [Compound 55, N-[4-[(6,7-Dimethoxy-1,5-naphthyridin-4-yl)oxy]phenyl]-1,2,6-trimethyl-4-oxo-5-prop-1-en-2-ylpyridine-3-carboxamide] | ≤ 100 nM | > 300 nM
COCCOc1cc2nccc(Oc3ccc(NC(=O)c4c(C)n(C)c(C)c(C5=CCCCC5)c4=O)cc3F)c2nc1OC [Compound 58, 5-(Cyclohexen-1-yl)-N-[3-fluoro-4-[[6-methoxy-7-(2-methoxyethoxy)-1,5-naphthyridin-4-yl]oxy]phenyl]-1,2,6-trimethyl-4-oxopyridine-3-carboxamide] | ≤ 100 nM | ≤ 100 nM
COCCOc1cnc2c(Oc3ccc(NC(=O)c4c(C)n(C)c(C)c(C5=CCCC5)c4=O)cc3F)ccnc2c1 [Compound 65, 5-(Cyclopenten-1-yl)-N-[3-fluoro-4-[[7-(2-methoxyethoxy)-1,5-naphthyridin-4-yl]oxy]phenyl]-1,2,6-trimethyl-4-oxopyridine-3-carboxamide] | ≤ 100 nM | ≤ 100 nM
COCCOc1cnc2c(Oc3ccc(NC(=O)c4c(C)n(C)c(C)c(C5=CCCCC5)c4=O)cc3F)ccnc2c1 [Compound 66, 5-(Cyclohexen-1-yl)-N-[3-fluoro-4-[[7-(2-methoxyethoxy)-1,5-naphthyridin-4-yl]oxy]phenyl]-1,2,6-trimethyl-4-oxopyridine-3-carboxamide] | ≤ 100 nM | ≤ 100 nM
COc1cc2nccc(Oc3ccc(NC(=O)c4c5n(c(C)c(C6=CCOCC6)c4=O)CCOC5)cc3)c2nc1OC [Compound 73, 7-(3,6-Dihydro-2H-pyran-4-yl)-N-[4-[(6,7-dimethoxy-1,5-naphthyridin-4-yl)oxy]phenyl]-6-methyl-8-oxo-3,4-dihydro-1H-pyrido[2,1-c][1,4]oxazine-9-carboxamide] | ≤ 100 nM | ≤ 100 nM
COc1nc2c(Oc3ccc(NC(=O)c4c(C)n(C)c(C)c(C5=CCCC5)c4=O)cc3F)ccnc2cc1OCCC1CCC1 [Compound 74, N-[4-[[7-(2-Cyclobutylethoxy)-6-methoxy-1,5-naphthyridin-4-yl]oxy]-3-fluorophenyl]-5-(cyclopenten-1-yl)-1,2,6-trimethyl-4-oxopyridine-3-carboxamide] | ≤ 100 nM | ≤ 100 nM
COc1cc2nccc(Oc3ccc(NC(=O)c4cnc(C)c(C5=CCCC5)c4O)cc3F)c2nc1OC [Compound G1-2, 5-(Cyclopenten-1-yl)-N-[4-[(6,7-dimethoxy-1,5-naphthyridin-4-yl)oxy]-3-fluorophenyl]-4-hydroxy-6-methylpyridine-3-carboxamide hydrochloride] | ≤ 100 nM | ≤ 100 nM
COc1cc2nccc(Oc3ccc(NC(=O)c4cnc(C)c(C5=CCCCC5)c4O)cc3F)c2nc1OC [Compound G1-3, 5-(Cyclohexen-1-yl)-N-[4-[(6,7-dimethoxy-1,5-naphthyridin-4-yl)oxy]-3-fluorophenyl]-4-hydroxy-6-methylpyridine-3-carboxamide] | ≤ 100 nM | ≤ 100 nM
COc1cc2nccc(Oc3ccc(NC(=O)c4c5n(cc(C6=CCCCC6)c4=O)CCOC5)cc3F)c2nc1OC [Compound G1-4, 7-(Cyclohexen-1-yl)-N-[4-[(6,7-dimethoxy-1,5-naphthyridin-4-yl)oxy]-3-fluorophenyl]-8-oxo-3,4-dihydro-1H-pyrido[2,1-c][1,4]oxazine-9-carboxamide] | ≤ 100 nM | ≤ 100 nM
